Results published in patent US8415475B2, “Antibacterial quinoline derivatives” (Janssen Pharmaceutica N.V., priority 2006, dated 2013).
≈ marks a conversion by molar mass, not a printed value.

What was measured:
[1] = tested on: Escherichia coli (ATCC35218); experiment: In-vitro anti-bacterial microtitre plate assay, IC90, E. coli; assay type: cell-based; details: 90% inhibitory concentration for bacterial growth, resazurin fluorescence; for IC90: Escherichia coli, ATCC35218, 24 h, read-out: IC90 values ECO 35218; for IC90 values ECO 35218: 24 hours
Description: (§1) D.3. In-Vitro Method for Testing Compounds for Anti-Bacterial Activity Against Various Non-Mycobacterial Strains The bacteria used in this study were grown overnight in flasks containing 100 ml Mueller-Hinton Broth (Becton Dickinson-cat. no. 275730) in sterile de-ionized water, with shaking, at 37° C. Stocks (0.5 ml/tube) were stored at -70° C. until use. Bacteria titrations were performed in microtiter plates to detect the TCID50, in which the TCID50 represents the dilution that gives rise to bacterial growth in 50% of inoculated cultures. In general, an inoculum level of approximately 100 TCID50 was used for susceptibility testing. Flat-bottom, sterile 96-well plastic microtiter plates were filled with 180 μl of sterile deionized water, supplemented with 0.25% BSA. Subsequently, stock solutions (7.8× final test concentration) of compounds were added in 45 μl volumes in column 2. Serial five-fold dilutions (45 μl in 180 μl) were made directly in the microtiter plates from column 2 to reach column 11. Untreated control samples with (column 1) and without (column 12) inoculum were included in each microtiter plate. Depending on the bacteria type, approximately 10 to 60 CFU per well of bacteria inoculum (100 TCID50), in a volume of 100 μl in 2.8× Mueller-Hinton broth medium, was added to the rows […]. The same volume of broth medium without inoculum was added to column 12 in row A to H. The cultures were incubated at 37° C. for 24 hours under a normal atmosphere (incubator with open air valve and continuous ventilation). At the end of incubation, one day after inoculation, the bacterial growth was quantitated fluorometrically. Therefore resazurin (0.6 mg/ml) was added in a volume of 20 μl to all wells 3 hours after inoculation, and the plates were re-incubated overnight. A change in colour from blue to pink indicated the growth of bacteria. The fluorescence was read in a computer-controlled fluorometer (Cytofluor Biosearch) at an excitation wavelength of 530 nm and an emission wavelength of 590 nm. The % growth inhibition achieved by the compounds was calculated according to standard methods.

[2] = tested on: Enterococcus faecalis (ATCC29212); experiment: In-vitro anti-bacterial microtitre plate assay, IC90, E. faecalis; assay type: cell-based; details: 90% inhibitory concentration for bacterial growth, resazurin fluorescence; for IC90: Enterococcus faecalis, ATCC29212, 24 h, read-out: IC90 values EFA 29212; for IC90 values EFA 29212: 24 hours
Description: as §1

[3] = tested on: Streptococcus pneumoniae (ATCC6305); experiment: In-vitro anti-bacterial microtitre plate assay, IC90, S. pneumoniae; assay type: cell-based; details: 90% inhibitory concentration for bacterial growth, resazurin fluorescence; for IC90 values SPN 1 6305: 24 hours; for IC90: Streptococcus pneumoniae, ATCC6305, 24 h, read-out: IC90 values SPN 1 6305
Description: as §1

M. Smegmatis (ATCC607) = experiment: In-vitro anti-bacterial activity against strain M. smegmatis ATCC607; assay type: cell-based; details: 90% inhibitory concentration for bacterial growth, Alamar Blue fluorescence; for IC90 values MSM 1 ATCC607: 48 hours; for IC90: Mycolicibacterium smegmatis, ATCC607, 48 h, read-out: IC90 values MSM 1 ATCC607
Description: D.2. In-Vitro Method for Testing Compounds for Anti-Bacterial Activity Against Strain M. smegmatis ATCC607. Flat-bottom, sterile 96-well plastic microtiter plates were filled with 180 μl of sterile deionized water, supplemented with 0.25% BSA. Subsequently, stock solutions (7.8× final test concentration) of compounds were added in 45 μl volumes to a series of duplicate wells in column 2 so as to allow evaluation of their effects on bacterial growth. Serial five-fold dilutions (45 μl in 180 μl) were made directly in the microtiter plates from column 2 to 11 using a customised robot system (Zymark Corp., Hopkinton, Mass.). Pipette tips were changed after every 3 dilutions to minimize pipetting errors with high hydrophobic compounds. Untreated control samples with (column 1) and without (column 12) inoculum were included in each microtiter plate. Approximately 250 CFU per well of bacteria inoculum, in a volume of 100 μl in 2.8× Mueller-Hinton broth medium, was added to the rows […]. The same volume of broth medium without inoculum was added to column 12 in row A to H. The cultures were incubated at 37° C. for 48 hours in a humidified 5% CO2 atmosphere (incubator with open air valve and continuous ventilation). At the end of incubation, two days after inoculation, the bacterial growth was quantitated fluorometrically. Therefore Alamar Blue (10×) was added to all wells in a volume of 20 μl and plates were incubated for another 2 hours at […] The fluorescence was read in a computer-controlled fluorometer (Cytofluor, Biosearch) at an excitation wavelength of 530 nm and an emission wavelength of 590 nm (gain 30).

[4] = tested on: Staphylococcus aureus (ATCC29213); experiment: In-vitro anti-bacterial microtitre plate assay, IC90, S. aureus; assay type: cell-based; details: 90% inhibitory concentration for bacterial growth, resazurin fluorescence; for IC90: Staphylococcus aureus, ATCC29213, 24 h, read-out: IC90 values STA 1 B29213; for IC90 values STA 1 B29213: 24 hours
Description: as §1

[5] = tested on: Streptococcus pyogens (ATCC8668); experiment: In-vitro anti-bacterial microtitre plate assay, IC90, S. pyogens; assay type: cell-based; details: 90% inhibitory concentration for bacterial growth, resazurin fluorescence; for IC90: Streptococcus, ATCC8668, 24 h, read-out: IC90 values SPY 8668; for IC90 values SPY 8668: 24 hours
Description: as §1

[6] = tested on: Mycobacterium tuberculosis (strain H37RV); experiment: In-vitro method for testing compounds against M. tuberculosis; assay type: cell-based; details: 90% inhibitory concentration for bacterial growth, 7 days, Middlebrook broth, resazurin fluorescence; for IC90: Mycobacterium tuberculosis, H37RV, 168 h, read-out: IC90 values MTB 1 H37RV
[7] = tested on: Pseudomonas aeruginosa (ATCC27853); experiment: In-vitro anti-bacterial microtitre plate assay, IC90, P. aeruginosa; assay type: cell-based; details: 90% inhibitory concentration for bacterial growth, resazurin fluorescence; for IC90: Pseudomonas aeruginosa, ATCC27853, 24 h, read-out: IC90 values PAE 27853
Description: as §1

SMILES | IC90 [1] | IC90 [2] | IC90 values SPN 1 6305 [3] | IC90 values MSM 1 ATCC607 (M. Smegmatis (ATCC607)) | IC90 [4] | IC90 [5] | IC90 [6] | IC90 [7] | IC90 values STA 1 B29213 [4] | melting point | IC90 values EFA 29212 [2] | IC90 values SPY 8668 [5] | IC90 values MTB 1 H37RV [6] | IC90 [3] | IC90 (M. Smegmatis (ATCC607)) | IC90 values ECO 35218 [1] | IC90 values PAE 27853 ([7]; 24 hours)
COc1nc2ccc(N3CCOCC3)cc2cc1C(c1ccccc1)C(O)(CCN(C)C)c1ccccc1 (single isomer, unassigned) [Compound 5] | 51.2 µg/mL (≈ 100 µM) | 40.6 µg/mL (≈ 79.4 µM) | 9.1 µg/mL (≈ 17.8 µM) | 0.04 µg/mL (≈ 0.0782 µM) | 40.6 µg/mL (≈ 79.3 µM) | 40.6 µg/mL (≈ 79.4 µM) |  |  |  |  |  |  |  |  |  |  | 
C=Cc1ccc2nc(OC)c(C(c3ccccc3)C(O)(CCN(C)C)c3cccc4ccccc34)cc2c1 (single isomer, unassigned) [Compound 8] | 50.3 µg/mL (≈ 100 µM) | 50.3 µg/mL (≈ 100 µM) | 2.0 µg/mL (≈ 3.98 µM) |  |  | 50.3 µg/mL (≈ 100 µM) | 3.6 µg/mL (≈ 7.16 µM) | 44.8 µg/mL (≈ 89.1 µM) | 50.3 µg/mL (≈ 100 µM) |  |  |  |  |  |  |  | 
C/C=C/c1ccc2nc(OC)c(C(c3ccccc3)C(O)(CCN(C)C)c3cccc4ccccc34)cc2c1 (single isomer, unassigned) [Compound 11] |  |  | 1.8 µg/mL (≈ 3.48 µM) | 0.01 µg/mL (≈ 0.0194 µM) |  |  |  | 51.7 µg/mL (≈ 100 µM) | 51.7 µg/mL (≈ 100 µM) | 190 °C | 51.67 µg/mL (≈ 100 µM) | 51.67 µg/mL (≈ 100 µM) |  |  |  |  | 
COc1nc2ccc(N)cc2cc1C(c1ccccc1)C(O)(CCN(C)C)c1cccc2ccccc12 (single isomer, unassigned) [Compound 15] |  |  | 7.8 µg/mL (≈ 15.9 µM) | 0.3 µg/mL (≈ 0.61 µM) |  |  |  |  | 7.8 µg/mL (≈ 15.9 µM) | 205 °C |  |  | 1.6 µg/mL (≈ 3.25 µM) |  |  |  | 
COc1nc2ccc(N)cc2cc1C(c1ccccc1)C(O)(CCN(C)C)c1cccc2ccccc12 (single isomer, unassigned) [Compound 16] |  |  | 24.6 µg/mL (≈ 50 µM) | 7.8 µg/mL (≈ 15.9 µM) |  |  |  |  | 43.8 µg/mL (≈ 89.1 µM) |  |  |  | 31.0 µg/mL (≈ 63.1 µM) |  |  |  | 
COc1nc2ccc(CN)cc2cc1C(c1ccccc1)C(O)(CCN(C)C)c1cccc2ccccc12 (single isomer, unassigned) [Compound 17] |  |  | 8.0 µg/mL (≈ 15.8 µM) | 0.4 µg/mL (≈ 0.791 µM) |  |  | 3.6 µg/mL (≈ 7.12 µM) |  | 8.0 µg/mL (≈ 15.8 µM) |  |  |  |  |  |  |  | 
COc1nc2ccc(/C=N/O)cc2cc1C(c1ccccc1)C(O)(CCN(C)C)c1cccc2ccccc12 (single isomer, unassigned) [Compound 23] | 52 µg/mL (≈ 100 µM) | 18.4 µg/mL (≈ 35.5 µM) | 0.3 µg/mL (≈ 0.577 µM) | 0.3 µg/mL (≈ 0.577 µM) |  | 8.24 µg/mL (≈ 15.9 µM) | 7.3 µg/mL (≈ 14 µM) | 8.24 µg/mL (≈ 15.9 µM) | 6.5 µg/mL (≈ 12.5 µM) | 187 °C |  |  |  |  |  |  | 
COc1nc2ccc(CNC(C)=O)cc2cc1C(c1ccccc1)C(O)(CCN(C)C)c1cccc2ccccc12 (single isomer, unassigned) [Compound 27] |  |  |  |  | 34.6 µg/mL (≈ 63.2 µM) |  | 21.8 µg/mL (≈ 39.8 µM) |  |  | 203 °C |  |  |  | 8.7 µg/mL (≈ 15.9 µM) | 4.4 µg/mL (≈ 8.03 µM) |  | 
COc1nc2ccc(C(=O)N(C)C)cc2cc1C(c1ccccc1)C(O)(CCN(C)C)c1cccc2ccccc12 (single isomer, unassigned) [Compound 28] |  |  |  |  | 43.5 µg/mL (≈ 79.4 µM) |  | 3.5 µg/mL (≈ 6.39 µM) |  |  |  |  |  |  | 10.9 µg/mL (≈ 19.9 µM) | 0.1 µg/mL (≈ 0.183 µM) |  | 
COc1nc2ccc(C(=O)N3CCN(C)CC3)cc2cc1C(c1ccccc1)C(O)(CCN(C)C)c1cccc2ccccc12 (single isomer, unassigned) [Compound 31] |  |  |  |  | 38 µg/mL (≈ 63 µM) |  | 4.8 µg/mL (≈ 7.96 µM) |  |  | 195 °C |  |  |  | 10.7 µg/mL (≈ 17.8 µM) | 0.4 µg/mL (≈ 0.664 µM) |  | 
COc1nc2ccc(N3CCOCC3)cc2cc1C(c1ccccc1)C(O)(CCN(C)C)c1ccccc1 (single isomer, unassigned) [Compound 36] |  |  | 51.2 µg/mL (≈ 100 µM) | 8.1 µg/mL (≈ 15.8 µM) |  |  |  |  | 51.2 µg/mL (≈ 100 µM) | 190 °C | 51.2 µg/mL (≈ 100 µM) | 40.6 µg/mL (≈ 79.3 µM) |  |  |  | 51.2 µg/mL (≈ 100 µM) | 
C=Cc1ccc2nc(OC)c(C(c3ccccc3)C(O)(CCN(C)C)c3cccc4ccccc34)cc2c1 (stereo not drawn) [Compound 9] | 50.3 µg/mL (≈ 100 µM) | 50.3 µg/mL (≈ 100 µM) |  |  | 50.3 µg/mL (≈ 100 µM) | 50.3 µg/mL (≈ 100 µM) | 0.2 µg/mL (≈ 0.398 µM) | 50.3 µg/mL (≈ 100 µM) |  |  |  |  |  | 0.3 µg/mL (≈ 0.597 µM) | 0.003 µg/mL (≈ 0.00597 µM) |  | 
COc1nc2ccc(CN)cc2cc1C(c1ccccc1)C(O)(CCN(C)C)c1cccc2ccccc12 (stereo not drawn) [Compound 18] |  |  | 3.6 µg/mL (≈ 7.12 µM) | 0.4 µg/mL (≈ 0.791 µM) |  |  |  |  | 8.0 µg/mL (≈ 15.8 µM) |  | 17.94 µg/mL (≈ 35.5 µM) | 6.37 µg/mL (≈ 12.6 µM) | 1.6 µg/mL (≈ 3.16 µM) |  |  | 8.01 µg/mL (≈ 15.8 µM) | 8.01 µg/mL (≈ 15.8 µM)
COc1nc2ccc(CN)cc2cc1C(c1ccccc1)C(O)(CCN(C)C)c1cccc2ccccc12 (stereo not drawn) [Compound 19] |  |  |  | 1.6 µg/mL (≈ 3.16 µM) | 8 µg/mL (≈ 15.8 µM) | 8.01 µg/mL (≈ 15.8 µM) |  | 8.01 µg/mL (≈ 15.8 µM) |  |  | 40.17 µg/mL (≈ 79.4 µM) |  | 8.0 µg/mL (≈ 15.8 µM) | 1.8 µg/mL (≈ 3.56 µM) |  | 40.17 µg/mL (≈ 79.4 µM) | 
